Measured values as given in paper PMC11011327 (International Journal of Molecular Sciences, 2024).
Like-named read-outs stand apart in the source and are kept apart here. Residues, ends and D or L forms follow the SMILES beside them. No end group written: not given here.

Experiments:
[1] = test system: TNF-induced cytotoxicity, L929 cells; test: Inhibition of cytotoxic activity of TNF on L929 cells; type: cell-based; details: TNF 1 nM, peptide 10 nM, n = 5, TNF preincubated with TNFR1 peptide / cells preincubated with TNFL; for apoptotic cytotoxic activity of TNF in the presence of peptide: 3 h; for necroptotic cytotoxic activity of TNF in the presence of peptide: 20 h
Description: (§1) Next, we investigated how this interaction affects the cytotoxic activity of TNFR1 ligands. […] Cell apoptosis is a fast process of several hours. During necroptosis, cell death processes take place after a few dozen hours. Taking into account this ability of TNFR1 to participate in the induction of alternative cytotoxic pathways that develop at different time intervals, cytotoxic activity was determined after 3 h and after 20 h (Figure 4). […] It can be assumed that the inhibition of the cytotoxic effect of the ligands is associated with the competition of a 12-membered peptide with the cell surface receptor on for binding to the ligands.

[2] = molecular target: T1, Tag7 (Homo sapiens, UniProt O75594); test: Microscale thermophoresis, binding to fluorescent-labeled Tag7; details: ratio to previously shown Kd of Tag7–sTNFR1 (42.2)
T1 construct: His tag (inferred from the pQE-31 vector only); made in house; host or cells: E. coli M15 (pREP4)
T1 sequence (O75594 22-196): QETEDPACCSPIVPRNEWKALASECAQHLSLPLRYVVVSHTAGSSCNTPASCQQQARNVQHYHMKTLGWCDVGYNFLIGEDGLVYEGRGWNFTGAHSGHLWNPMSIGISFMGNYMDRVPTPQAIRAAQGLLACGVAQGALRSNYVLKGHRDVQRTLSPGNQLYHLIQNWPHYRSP
Description: The calculated Kd indicates a high affinity among the studied complexes (Table 1).
Graphs are represented as Fnorm [‰] against ligand concentration. Data represent three independent experiments and were fitted to a Kd binding model assuming a 1:1 binding stoichiometry.
Hsp70 and TNF-α were purified with Ni-NTA Agarose (Thermo Fisher Scientific, Waltham, MA, USA) in accordance with the manufacturer’s instructions.
The samples were transferred to glass capillaries (Monolith NT Capillaries) and analyzed by microscale thermophoresis on a Nano-Temperature Monolith NT 115 device (30% IR laser power). The signal quality was monitored using a NanoTemper Monolith device to detect possible autofluorescence of the ligand, aggregation or changes in the rate of photobleaching. The experiments were carried out in at least three repetitions and processed using affinity analysis software (MO Control v.1.6.1, NanoTemper Technologies GmbH, München, Germany).

[3] = test system: Tag7–Hsp70-induced cytotoxicity, L929 cells; test: Inhibition of cytotoxic activity of Tag7–Hsp70 complex on L929 cells; type: cell-based; details: Tag7–Hsp70 1 nM, peptide 10 nM, n = 5, complex preincubated with TNFR1 peptide / cells preincubated with TNFL; for apoptotic cytotoxic activity of Tag7–Hsp70 complex in the presence of peptide: 3 h; for necroptotic cytotoxic activity of Tag7–Hsp70 complex in the presence of peptide: 20 h
Description: as §1

[4] = test system: tumor cells / cancer cells; details: ref [33]; cited from earlier work
Description: The amino acid sequence of Tag7 seemingly lacks a peptide fragment interacting with the second site of the receptor.

[5] = test system: tumor; details: ref [33]; cited from earlier work
Description: Modifications of the TNF molecule are used to solve it.

[6] = test system: L929 cells; test: Cytotoxic activity of TNF peptides on L929 cells; details: 20 h, n = 5, Cytotox 96 kit
Description: (§2) The TNFR1 antibodies were added to the sum of TNFL and TNFS peptides prior to incubation (a). Cytotoxic activity of the sum of TNFL and TNFS peptides on L929 cells after 3 (b) and 20 (c) hours in the presence of caspase 3 and 8 inhibitors (5 μM) and necrostatin1 (5 μM) is shown. (d) Cytotoxic activity of the sum of TNFL and TNFs peptides on L929 cells after 20 h of incubation in the presence of calpains inhibitors (10 μM), cathepsins inhibitors (10 μM) and antioxidant (1 μM). n = 5 for each point, (* p-value < 0.05).
(§3) L929 cells were cultured in DMEM with 2 mm L-glutamine and 10% FCS (Invitrogen, Carlsbad, CA, USA). This cell line was obtained from the cell line collection of the N. N. Blokhin National Medical Research Center of Oncology of the Ministry of Health of Russia.
(§4) For cytotoxicity tests, target cells were cultured in 96-well plates (3 × 10^4 cells per well), and cytotoxic complexes were added (1 nM). Cytotoxicity was measured after 20 h of incubation by Cytotox 96 analysis kit (Promega, Madison, WI, USA) in accordance with the manufacturer’s protocol. […]

[7] = molecular target: sTNFR1; details: read-out: Kd value for the Tag7–sTNFR1 complex; "Previously, we showed"; cited from earlier work
[8] = test system: L929 cells
Description: as §2, §3, §4

Compound	apoptotic cytotoxic activity of TNF in the presence of peptide [1]	necroptotic cytotoxic activity of TNF in the presence of peptide [1]	Kd of Tag7–TNFR1 peptide complex compared with Kd of Tag7–sTNFR1 complex [2]	apoptotic cytotoxic activity of Tag7–Hsp70 complex in the presence of peptide [3]	necroptotic cytotoxic activity of Tag7–Hsp70 complex in the presence of peptide [3]	killing of tumor cells [4]	inhibition of tumor growth / metastasis [5]	cytotoxic activity [6]	Kd [7] [nM]	cytotoxic activity [8]
CC(C)C[C@H](NC(=O)[C@H](CS)NC(=O)[C@H](Cc1c[nH]cn1)NC(=O)[C@H](CCCNC(=N)N)NC(=O)[C@H](CC(C)C)NC(=O)[C@H](Cc1c[nH]cn1)NC(=O)[C@@H](N)CC(N)=O)C(=O)N[C@@H](CO)C(=O)N[C@@H](CS)C(=O)N[C@@H](CO)C(=O)N[C@@H](CCCCN)C(=O)N[C@@H](CS)C(=O)O [TNFR1 peptide] (H-NHLRHCLSCSKC-OH)	completely lose both apoptotic and necroptotic activity	completely lose both apoptotic and necroptotic activity	approximately 10 times lower	completely lose both apoptotic and necroptotic activity	completely lose both apoptotic and necroptotic activity					
TNF peptide (aa. 150–170): TNF peptide (aa. 150–170), capable of killing tumor cells and inhibiting tumor growth (VLLTHTISRIAVSYQTKVNLL; UniProt P01375 150-170, looked up, fragment)						capable of killing tumor cells	inhibiting tumor growth			
YVLLTH [TNFS peptide]	does not inhibit apoptosis nor necroptosis	does not inhibit apoptosis nor necroptosis		does not inhibit apoptosis nor necroptosis	does not inhibit apoptosis nor necroptosis			no cytotoxic effect		
Tag7: recombinant human Tag7, innate immunity protein, TNFR1 ligand									42.2	
NPQAEGQLQWLNRRAN [TNFL peptide]	Both apoptosis (3 h) and necroptosis (20 h) were inhibited	Both apoptosis (3 h) and necroptosis (20 h) were inhibited		Both apoptosis (3 h) and necroptosis (20 h) were inhibited	Both apoptosis (3 h) and necroptosis (20 h) were inhibited					no cytotoxic effect
